Experimental data taken from patent US8969360B2, “Compounds useful as inhibitors of ATR kinase” (Vertex Pharmaceuticals Incorporated, priority 2013, dated 2015).

Columns and labels:
ATR kinase = target: T1, ATR kinase (Homo sapiens, UniProt Q13535); test: ATR Inhibition Assay (radioactive-phosphate incorporation); assay type: biochemical; details: Ki(app); 5 nM full-length ATR, 10 μM ATP, 800 μM target peptide, 25° C.
T1 construct: Assays were carried out at 25° C. in the presence of 5 nM full-length ATR
How it was run: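 Full-length ATR (5 nM) in 50 mM Tris/HCl pH 7.5, 10 mM MgCl2, 1 mM DTT, with 800 μM peptide substrate and 10 μM [γ-33P]ATP at 25 °C. Compounds (from 15 μM final, 3-fold dilutions, 7% DMSO) were preincubated 10 min; the reaction was stopped at 24 h. 33P incorporation was captured on phosphocellulose; Ki(app) was from non-linear regression of initial rates.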

[1] = tested on: HCT116 colorectal cancer cells; test: Cisplatin Sensitization Assay (96 h cell viability MTS); assay type: cell-based; details: concentration of compound required to reduce the IC50 of Cisplatin alone by at least 3-fold; HCT116, 96 h MTS
How it was run: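 HCT116 cells received compound and cisplatin together as a full matrix of 2-fold dilutions, each from a 10 μM top final concentration. After 96 h at 37 °C and 5% CO2, viability was read by MTS (1 h, A490). The value is the compound concentration that lowers the cisplatin IC50 at least 3-fold.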

T1 sequence (Q13535 whole entry): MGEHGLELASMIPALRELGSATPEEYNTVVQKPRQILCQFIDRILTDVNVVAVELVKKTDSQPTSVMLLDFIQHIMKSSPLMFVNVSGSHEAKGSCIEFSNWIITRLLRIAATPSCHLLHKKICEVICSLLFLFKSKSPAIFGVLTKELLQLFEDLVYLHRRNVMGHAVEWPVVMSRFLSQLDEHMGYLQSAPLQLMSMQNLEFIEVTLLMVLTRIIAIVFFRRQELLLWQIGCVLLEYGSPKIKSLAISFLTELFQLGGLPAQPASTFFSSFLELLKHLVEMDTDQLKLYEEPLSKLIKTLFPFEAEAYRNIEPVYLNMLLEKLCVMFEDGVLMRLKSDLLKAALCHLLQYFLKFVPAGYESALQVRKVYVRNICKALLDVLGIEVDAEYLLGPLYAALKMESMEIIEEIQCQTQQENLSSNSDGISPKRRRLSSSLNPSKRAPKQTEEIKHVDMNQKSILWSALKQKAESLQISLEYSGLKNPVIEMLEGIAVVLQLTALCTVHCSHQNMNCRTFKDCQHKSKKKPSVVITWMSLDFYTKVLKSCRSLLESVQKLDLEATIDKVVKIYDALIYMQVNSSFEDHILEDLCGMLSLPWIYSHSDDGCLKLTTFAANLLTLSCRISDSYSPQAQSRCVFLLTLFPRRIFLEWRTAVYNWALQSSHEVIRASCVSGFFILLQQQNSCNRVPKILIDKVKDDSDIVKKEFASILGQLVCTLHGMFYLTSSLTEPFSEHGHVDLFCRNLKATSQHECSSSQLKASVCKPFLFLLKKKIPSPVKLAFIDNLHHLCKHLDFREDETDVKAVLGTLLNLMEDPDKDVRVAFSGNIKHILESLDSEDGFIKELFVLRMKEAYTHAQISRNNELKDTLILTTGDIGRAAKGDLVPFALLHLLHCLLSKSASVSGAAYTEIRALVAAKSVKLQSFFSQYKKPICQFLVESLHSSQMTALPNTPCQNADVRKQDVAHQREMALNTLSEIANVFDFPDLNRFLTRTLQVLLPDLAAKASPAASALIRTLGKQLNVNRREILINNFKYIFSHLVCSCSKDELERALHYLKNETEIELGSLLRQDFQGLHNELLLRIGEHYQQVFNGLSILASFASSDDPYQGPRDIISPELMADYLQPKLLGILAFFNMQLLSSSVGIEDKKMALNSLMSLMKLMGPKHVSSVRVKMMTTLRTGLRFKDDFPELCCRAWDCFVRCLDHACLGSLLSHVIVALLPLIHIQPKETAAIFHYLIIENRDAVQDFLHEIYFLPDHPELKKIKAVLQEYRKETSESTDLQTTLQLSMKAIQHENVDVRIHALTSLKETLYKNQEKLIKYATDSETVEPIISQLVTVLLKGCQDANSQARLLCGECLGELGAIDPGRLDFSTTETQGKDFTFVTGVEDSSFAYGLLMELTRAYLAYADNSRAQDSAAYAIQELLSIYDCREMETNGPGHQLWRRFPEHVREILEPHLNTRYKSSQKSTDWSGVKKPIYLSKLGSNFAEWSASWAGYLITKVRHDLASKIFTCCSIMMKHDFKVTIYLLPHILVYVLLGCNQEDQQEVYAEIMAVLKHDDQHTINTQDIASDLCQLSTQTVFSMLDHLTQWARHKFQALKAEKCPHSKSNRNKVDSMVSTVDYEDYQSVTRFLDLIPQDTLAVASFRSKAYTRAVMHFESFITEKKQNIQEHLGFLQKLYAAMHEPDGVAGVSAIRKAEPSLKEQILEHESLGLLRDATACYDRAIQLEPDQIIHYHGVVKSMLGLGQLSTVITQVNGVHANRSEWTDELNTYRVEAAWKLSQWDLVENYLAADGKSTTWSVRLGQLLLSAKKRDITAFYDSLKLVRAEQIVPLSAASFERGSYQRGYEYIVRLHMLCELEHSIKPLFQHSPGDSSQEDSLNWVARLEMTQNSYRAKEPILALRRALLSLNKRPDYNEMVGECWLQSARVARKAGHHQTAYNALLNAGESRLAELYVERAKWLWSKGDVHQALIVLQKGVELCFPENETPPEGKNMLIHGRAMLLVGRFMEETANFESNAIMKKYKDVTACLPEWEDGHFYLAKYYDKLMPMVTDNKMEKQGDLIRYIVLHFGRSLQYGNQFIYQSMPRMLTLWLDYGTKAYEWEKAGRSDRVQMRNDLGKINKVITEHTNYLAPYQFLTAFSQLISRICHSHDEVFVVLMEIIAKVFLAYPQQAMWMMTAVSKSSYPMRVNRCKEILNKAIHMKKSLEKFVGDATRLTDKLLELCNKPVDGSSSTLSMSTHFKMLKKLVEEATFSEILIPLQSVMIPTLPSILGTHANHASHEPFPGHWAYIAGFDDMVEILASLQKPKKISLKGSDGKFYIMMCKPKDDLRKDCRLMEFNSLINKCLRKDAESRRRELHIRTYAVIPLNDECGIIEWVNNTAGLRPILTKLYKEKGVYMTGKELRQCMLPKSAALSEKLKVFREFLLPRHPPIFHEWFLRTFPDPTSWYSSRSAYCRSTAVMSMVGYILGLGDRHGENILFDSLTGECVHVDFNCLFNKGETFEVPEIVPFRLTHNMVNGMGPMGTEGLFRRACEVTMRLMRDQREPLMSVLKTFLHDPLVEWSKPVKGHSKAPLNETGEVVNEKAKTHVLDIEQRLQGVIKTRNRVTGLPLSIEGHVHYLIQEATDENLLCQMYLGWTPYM

SMILES	Ki (ATR kinase)	Synergy with Cisplatin [1]
CN(C)Cc1ccc(Oc2ccncc2NC(=O)c2c(N)nn3ccc(C(F)(F)F)nc23)cn1 [I-O-45, 2-amino-N-(4-((6-((dimethylamino)methyl)pyridin-3-yl)oxy)pyridin-3-yl)-5-(trifluoromethyl)pyrazolo[1,5-a]pyrimidine-3-carboxamide]	10 to 1000 nM	+++ (Compounds with a Cisplatin sensitization value of <0.02 μM are marked with “+++.”)
Nc1nn2ccc(C(F)(F)F)nc2c1C(=O)Nc1cnccc1OC1CCC1 [I-O-5, 2-amino-N-(4-cyclobutoxypyridin-3-yl)-5-(trifluoromethyl)pyrazolo[1,5-a]pyrimidine-3-carboxamide]	10 to 1000 nM	+++ (Compounds with a Cisplatin sensitization value of <0.02 μM are marked with “+++.”)
Nc1nn2ccc(C(F)(F)F)nc2c1C(=O)Nc1cnccc1O[C@@H]1CCOC1 [I-O-9, (R)-2-amino-N-(4-((tetrahydrofuran-3-yl)oxy)pyridin-3-yl)-5-(trifluoromethyl)pyrazolo[1,5-a]pyrimidine-3-carboxamide]	10 to 1000 nM	+++ (Compounds with a Cisplatin sensitization value of <0.02 μM are marked with “+++.”)
Nc1nn2ccc(C(F)(F)F)nc2c1C(=O)Nc1cnccc1OCCO [I-O-13, 2-amino-N-(4-(2-hydroxyethoxy)pyridin-3-yl)-5-(trifluoromethyl)pyrazolo[1,5-a]pyrimidine-3-carboxamide]	< 10 nM	+++ (Compounds with a Cisplatin sensitization value of <0.02 μM are marked with “+++.”)
C=CCOCc1ccn2nc(N)c(C(=O)Nc3cnccc3OC)c2n1 [I-O-55, 5-((allyloxy)methyl)-2-amino-N-(4-methoxypyridin-3-yl)pyrazolo[1,5-a]pyrimidine-3-carboxamide]	10 to 1000 nM	+++ (Compounds with a Cisplatin sensitization value of <0.02 μM are marked with “+++.”)
COc1ccncc1NC(=O)c1c(N)nn2ccc(N3CCN4CCC[C@@H]4C3)nc12 [I-O-75, (R)-2-amino-5-(hexahydropyrrolo[1,2-a]pyrazin-2(1H)-yl)-N-(4-methoxypyridin-3-yl)pyrazolo[1,5-a]pyrimidine-3-carboxamide]	10 to 1000 nM	++ (Compounds with a Cisplatin sensitization value>0.02 μM but <0.2 μM are marked with “++.”)
COc1ccncc1NC(=O)c1c(N)nn2ccc(N(C)CC3CCCN3C)nc12 (stereo not drawn) [I-O-73, 2-amino-N-(4-methoxypyridin-3-yl)-5-(methyl((1-methylpyrrolidin-2-yl)methyl)amino)pyrazolo[1,5-a]pyrimidine-3-carboxamide]	10 to 1000 nM	+ (Compounds with a Cisplatin sensitization value >0.2 μM but <5 μM are marked with “+.”)
Nc1nn2ccc(C(F)(F)F)nc2c1C(=O)Nc1cnccc1OC1CCOCC1 [I-O-11, 2-amino-N-(4-((tetrahydro-2H-pyran-4-yl)oxy)pyridin-3-yl)-5-(trifluoromethyl)pyrazolo[1,5-a]pyrimidine-3-carboxamide]	10 to 1000 nM	+++ (Compounds with a Cisplatin sensitization value of <0.02 μM are marked with “+++.”)
CN(C)C1CCC(COc2ccncc2NC(=O)c2c(N)nn3ccc(C(F)(F)F)nc23)CC1 (stereo not drawn) [I-O-42, 2-amino-N-(4-((4-(dimethylamino)cyclohexyl)methoxy)pyridin-3-yl)-5-(trifluoromethyl)pyrazolo[1,5-a]pyrimidine-3-carboxamide]	10 to 1000 nM	+++ (Compounds with a Cisplatin sensitization value of <0.02 μM are marked with “+++.”)
